Laboratory results: patent publication US8614333B2, “Acenaphtho heterocyclic compound and application thereof” (Dalian University of Technology, priority 2010, dated 2013)

Key:
Bcl-2 protein = Bcl-2 protein (Homo sapiens, UniProt P10415); experiment: ELISA assay, competitive binding to Bcl-2 protein (biotin-Bim/streptavidin plate); details: method calculates average IC50, read-out: Bcl-2 binding constants
Experimental: (§1) The present inventors used fluorescence polarization assay to detect the bonding force between the protein and the compounds in a previous study (PCT/CN2010/075521). […] ELISA assay was used to detect the bonding force between the compounds and the protein in this application.
(§2) Biotinylated Bim peptide was diluted to 0.09 μg/mL in SuperBlock blocking buffer in PBS and incubated for 1.5 h in 96-well microtiter plates already coated with streptavidin to allow the formation of the complex between Biotin-Bim and streptavidin. All incubations were performed at room temperature unless otherwise noted. Each inhibitor was first dissolved in pure DMSO to obtain a 10 mM stock solution. For each tested inhibitor, different concentrations of the inhibitor were incubated with 20 nM His-tagged Mcl-1 protein in PBS for 1 h with a final DMSO concentration of 4%. The plates were washed three times with PBS containing 0.05% Tween-20. The inhibitor and protein mixture (100 μL) were transferred to the plate containing the biotin-Bim/streptavidin complex and incubated for 2 h. The plate was then washed as before and mouse anti-His antibody that conjugated with horseradish peroxidase was added into the wells and incubated for 1 h. The plate was then washed with PBS containing 0.05% Tween-20. Finally, TMB was added to each well; the enzymatic reaction was stopped after 30 min by addition of H2SO4 (100 μL, 2M). Absorbances were measured with a TECAN GENios (Swiss, TECAN) microplate reader using a wavelength of 450 nm. Three independent experiments were performed with each inhibitor to calculate average IC50 value and standard deviation (SD).
(§3) The BH3 analogous degrees of other 11 compounds were detected by using the experimental method as described above. The protein binding constant (binding constant in table 1) between them and Bcl-2 and Mcl-1 proteins were also on nM grade.

His-tagged Mcl-1 protein = His-tagged Mcl-1 protein (Homo sapiens, UniProt Q07820); experiment: ELISA assay, competitive binding to Mcl-1 protein (biotin-Bim/streptavidin plate); details: 20 nM His-tagged Mcl-1, method calculates average IC50, read-out: Mcl-1 binding constants
Sequence of His-tagged Mcl-1 protein (Q07820 whole entry): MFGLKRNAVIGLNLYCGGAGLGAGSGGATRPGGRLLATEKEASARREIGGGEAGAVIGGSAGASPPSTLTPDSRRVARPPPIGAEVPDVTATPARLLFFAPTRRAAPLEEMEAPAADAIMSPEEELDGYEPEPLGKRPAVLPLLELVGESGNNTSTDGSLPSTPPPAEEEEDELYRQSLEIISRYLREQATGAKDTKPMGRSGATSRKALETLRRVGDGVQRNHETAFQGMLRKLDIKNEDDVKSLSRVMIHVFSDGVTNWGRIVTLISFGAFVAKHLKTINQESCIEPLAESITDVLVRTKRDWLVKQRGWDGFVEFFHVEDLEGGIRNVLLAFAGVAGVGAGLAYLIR
Experimental: as §1, §2, §3

[1] = target: T1, interaction between Bcl-2 and Bax (Homo sapiens, UniProt P10415); experiment: Intracellular FRET, Bcl-2-CFP/Bax-YFP in Hela cells; format: cell-based; details: for Time (time period after which the interaction between Bcl-2 and Bax was interfered): at the concentration given
T1 construct: expressed in transfected cells; host or cells: Hela cells
T1 sequence (P10415 whole entry): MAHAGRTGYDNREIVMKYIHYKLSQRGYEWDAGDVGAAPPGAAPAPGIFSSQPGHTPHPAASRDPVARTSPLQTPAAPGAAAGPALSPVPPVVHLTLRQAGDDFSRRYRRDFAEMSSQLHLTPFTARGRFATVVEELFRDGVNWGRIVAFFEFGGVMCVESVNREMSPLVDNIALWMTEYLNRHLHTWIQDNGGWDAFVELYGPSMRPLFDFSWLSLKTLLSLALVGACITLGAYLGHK
Experimental: 2 μg of Bcl-2-CFP and Bax-YFP plasmids were transfected separately or simultaneously into Hela cells by using calcium phosphate coprecipitation method, 24 hours later, the cells were inoculated in a 6-well plate (2×10^5 cells/well), and the compound 1 to be detected dissolved in DMSO was added there into until the final concentration (2, 5, 10 and 15 μM) was achieved. 24 hours later (please refer to FIG. 5); the cells were washed with PBS for three times. The fluorescence value was detected by GENIOS fluorescence enzyme-labelled meter (TECAN, Swiss). In time-dependent experiment, the transfected cells were inoculated in a 6-well plate, after that, 40 μM of the compound was added thereinto. 3, 6 and 24 hours later (FIG. 6), the fluorescence intensities were detected by plate reader. As for the cell group in which only Bcl-2-CFP plasmid was transfected, the values at 475 nm emission wave length and 433 nm excitation wave length were recorded. As for the cell group in which only Bax-YFP plasmid was transfected, the values at 527 nm emission wave length and 505 nm excitation wave length were recorded. As for the cell group in which Bcl-2-CFP and Bax-YFP plasmids were co-transfected, the values at 527 nm and 475 emission wave lengths and 433 nm excitation wave length were recorded. The ratio of fluorescence intensity at 527 nm and 475 nm emission wave lengths was FRET. The FRET for the control group in which the plasmid was solely transfected was set as 1.0. […] In the cotransfected cells, the FRET increased up to 2.0 due to the interaction of Bcl-2 protein and Bax protein, and that the interference to the interaction between the two proteins increased and FRET decreased with the increase of the drug concentration and time. The cellular vitality was detected by MTT method. When the concentration of the compound reached 1 μM, the interaction between Bcl-2 and Bax can be interfered after 2 hours, and the results appeared concentration-time dependent trend.
Wherein the concentration and time meant that the detected compound interfered with the interaction between Bcl-2 and Bax at the concentration for the time period.

[2] = system: BAX shift towards the chondriosome; experiment: Co-localization between Bax protein and chondriosome, Bax-YFP in MCF-7 cells; format: cell-based; details: for Doses (concentration at which the compound drove the BAX to shift towards the chondriosome): Bax-YFP/Mito Tracker Red; for Time (time period after which BAX shifted towards the chondriosome): at the concentration given
Experimental: 5 μg of Bax-YFP plasmid was transfected into MCF-7 cells by using calcium phosphate coprecipitation method, 24 hours later, the cells were inoculated in a 6-well plate (0.2×10^6 cells/well), and 10 μM of the compound 1 to be detected was added thereinto. 6 hours later, the cells were washed with PBS and hatched away from light with 50 nM Mito Tracker Red CMXRos (chondriosome specific probes; red) for 10 minutes. Then the cells were washed with PBS for three times, and the fluorescent image was scanned with Radiance2000 laser confocal microscopy (Bio-Rad, USA). Meanwhile, dual channel scanning was carried out, one channel was used to scan the green fluorescence of Bax-YFP, and the other channel was used to scan the red fluorescence of the CMXRos probe for indicating the chondriosome. […] When the Bax protein was localized on the chondriosome, the green and red fluorescence was superimposed into orange, as shown in FIG. 7.
Other 24 compounds were detected by the same experimental method as described above. […] Wherein the concentration and time meant that the detected compound simulated the BH3-only protein and driven the BAX to shift towards the chondriosome at the concentration for the time period.

MCF-7 cells = experiment: Cytotoxicity by MTT, cells without plasmid transfection; format: cell-based; details: Homo sapiens, MCF7; MCF-7, MTT, 48 hours; read-out: IC50 value in untransfected cells
Experimental: (§4) 3 μg of BAX/BAK interfering plasmid was transfected into MCF-7 cells by using calcium phosphate coprecipitation method, 24 hours later, the cells were collected. The expressions after the BAX and BAK proteins interfered with RNA was detected by Western, and the cell groups without plasmid transfection were treated similarly and were set as the control group. The transfected cells were inoculated in a 96-well plate (1×10^5 cells/well), the control experiment of the cell group without plasmid transfection was carried out in parallel. The compound 1 to be detected was added thereinto according to the concentration gradient designed before the experiment. 48 hours later, the cellular vitality was detected by MTT. The experimental results were shown in FIG. 9, Gossypol as nonspecific BH3 analogue was treated in parallel.
(§5) Other 24 compounds were also detected by the same experimental method as described above, the differences of IC50 values between the transfected cells and the without plasmid transfection cells were compared.

[3] = system: MCF-7 cells transfected with BAX/BAK interfering plasmid; experiment: Cytotoxicity by MTT, cells transfected with BAX/BAK interfering plasmid; format: cell-based; details: Homo sapiens, MCF7; MCF-7 with BAX/BAK interfering plasmid, MTT, 48 hours
Experimental: as §4, §5

Bcl-2 = experiment: Western blotting, semiquantitative analysis of Bcl-2 protein bands; format: cell-based; details: control = 1, tumor cells
Experimental: (§6) The interest protein was detected by the corresponding antibody. The expression of the interest protein in the cells was detected by horseradish peroxidase-labeled secondary antibodies in combination with ECL coloration method. […] The concentration of the protein bands in the Western images were carried out semiquantitative analysis and normalization treatment with KODAK Gel Logic 1500 imaging system software.

Mcl-1 = experiment: Western blotting, semiquantitative analysis of Mcl-1 protein bands; format: cell-based; details: control = 1, tumor cells
Experimental: as §6

Sequence of Bcl-2 protein (P10415 whole entry, species assumed): as the sequence (P10415 whole entry) above

| SMILES | IC50 (Bcl-2 protein) [nM] | IC50 (His-tagged Mcl-1 protein) [nM] | Doses (concentration at which the compound interfered with the interaction between Bcl-2 and Bax) [1] [µM] | Time (time period after which the interaction between Bcl-2 and Bax was interfered) [1] [h] | Doses (concentration at which the compound drove the BAX to shift towards the chondriosome) [2] [µM] | Time (time period after which BAX shifted towards the chondriosome) [2] [h] | IC50 (MCF-7 cells) [nM] | IC50 [3] [nM] | concentration of the protein bands (semiquantitative, normalized), Bcl-2 (Bcl-2; 6 h) | concentration of the protein bands (semiquantitative, normalized), Bcl-2 (Bcl-2; 12 h) | concentration of the protein bands (semiquantitative, normalized), Bcl-2 (Bcl-2; 18 h) | concentration of the protein bands (semiquantitative, normalized), Bcl-2 (Bcl-2; 24 h) | concentration of the protein bands (semiquantitative, normalized), Mcl-1 (Mcl-1; 2 h) | concentration of the protein bands (semiquantitative, normalized), Mcl-1 (Mcl-1; 6 h) | melting point [°C] |
| --- | --- | --- | --- | --- | --- | --- | --- | --- | --- | --- | --- | --- | --- | --- | --- |
| O=C1N=C2C(=C1NCCCc1ccccc1)c1cccc3cccc2c13 [Compound 3, 9-(3-Phenyl-propylamino)-acenaphtho[1,2-b]pyrrol-8-one] | 8 | 14 | 0.2 | 2 | 0.2 | 2 | 3000 | > 50000 | 0.99 | 0.99 | 0.49 | 0.18 | 0.65 | 0.29 | 252 to 253 |
| CCCCNC1=C2C(=NC1=O)c1cccc3c(Oc4ccc(C(C)C)cc4)ccc2c13 [Compound 11, 9-Butylamino-3-(4-isopropyl-phenoxy)-acenaphtho[1,2-b]pyrrol-8-one] | 112 | 46 | 0.3 | 2 | 0.9 | 3 | 4200 | > 50000 | 0.99 | 0.99 | 0.57 | 0.22 | 0.70 | 0.34 | 243 to 244 |
| CC(C)c1ccc(Oc2ccc3c4c(cccc24)C2=NC(=O)C(NCCCc4ccccc4)=C23)cc1 [Compound 12, 3-(4-Isopropyl-phenoxy)-9-(3-phenyl-propylamino)-acenaphtho[1,2-b]pyrrol-8-one] | 9 | 15 | 0.2 | 1 | 0.3 | 2 | 2900 | > 50000 | 0.99 | 0.99 | 0.45 | 0.16 | 0.66 | 0.28 | 275 to 276 |
| O=C1N=C2C(=C1NCCCc1ccccc1)c1ccc(N3CCSCC3)c3cccc2c13 [Compound 10, 9-(3-Phenyl-propylamino)-3-thiomorpholin-4-yl-acenaphtho[1,2-b]pyrrol-8-one] | 17 | 5 | 0.1 | 2 | 0.2 | 1 | 500 | > 50000 | 0.99 | 0.99 | 0.45 | 0.12 | 0.53 | 0.21 | 265 to 266 |
| CCCCCCNC1=C2C(=NC1=O)c1cccc3cccc2c13 [Compound 2, 9-n-Hexylamino-acenaphtho[1,2-b]pyrrol-8-one] | 28 | 25 | 0.4 | 3 | 0.5 | 3 | 3500 | > 50000 | 0.99 | 0.99 | 0.50 | 0.19 | 0.70 | 0.31 | 234 to 235 |
